{"source": "patent US10105403B2", "about": "“Methods of treating iron deficiency to prevent iron-deficiency anemia by administration of Lactobacillus plantarum” (Probi AB, priority 2005, dated 2018)", "test_system": "Caco-2 cells", "assay": "Cellular 55Fe uptake and transfer across Caco-2 monolayers with bacterial suspensions", "type": "cell-based", "experimental": "Caco-2 cells were obtained from the American Type Culture Collection (Rockville, Md.) at passage 17 and used for experiments at passages 20-35. Stock cultures were maintained in Dulbecco's modified […] medium (DMEM) supplemented with 20% (v/v) fetal calf serum (FSC), […] penicillin G, and 100 mg/L streptomycin at 37° C. in a huminified atmosphere of 95% air-5% CO2. The growth medium was changed every second to third day. Cells were split at ˜80% confluence using 0.5 g/L trypsin with 0.5 mmol/L EDTA in Dulbecco's phosphate buffered saline (PBS). […]\nLactobacillus plantarum 299v (DSM9843), (5), Lactobacillus plantarum 299, (1), Lactobacillus plantarum Heal 9 (DSM 15312), (2), Lactobacillus plantarum Heal 19 (DSM15313), (4), Lactobacillus plantarum 299v mutant (AMJ1277), (3) and Lactobacillus reuteri, (6) were cultured in MRS broth at a rotary shaker (37° C., 200 rpm). […] The volume of cell culture corresponding to a certain cell-number was calculated from a predetermined standard curve. […]\nFresh supplemented DMEM was provided to the cells 1 day prior to the uptake and transfer assays. […] After 2 h incubation, the cells were washed four times with ice-cold wash buffer (150 mmol/L NaCl, 10 mmol/L HEPES, 1 mmol/L EDTA, pH7) and homogenized in 0.5M NaOH. ^55Fe transferred to the basolateral chamber or associated with the Caco-2 lysates was measured by liquid scintillation counting. […]"}
{"substance": "Lactobacillus reuteri", "values": [{"measurement": "Transport %", "setting": "FeCl3 10 μmol/l in HBSS/HEPES, 55Fe traced, 2 h incubation, 6.7×10^7 cells/ml (Lactobacillus reuteri 3.35×10^7 cells/ml), control without bacteria 0.06", "value": 0.11, "unit": "%"}, {"measurement": "Effect on Fe transport (in words)", "setting": "FeCl3 10 μmol/l, Caco-2 monolayers, compared to neat Fe solution", "value": "an increase of the transport is seen, but not comparable with the different Lactobacillus plantarum strains"}]}
